Reference: patent US10166225B2, “Method for treating osteoporosis” (Exelixis, Inc., priority 2011, dated 2019)

Assays:
[1] = system: KS483 mouse osteoprogenitor cells; experiment: Osteoblast differentiation assay (cellular ALP activity at day 8); type: cell-based; settings: reference stimulator, 10 nM
Description: In the third part, KS483 mouse osteoprogenitor cells were cultured for 8 days, after which the formed mature osteoblasts were quantitated by measuring the amount of intracellular alkaline phosphatase (ALP) activity. […] The effects on osteoblasts were studied using KS483 mouse osteoprogenitor cells that can be induced to differentiate into bone-forming osteoblasts. […] In the osteoblast differentiation assay, the cells were cultured for 8 days, after which the formed mature osteoblasts were quantitated by measuring the amount of intracellular alkaline phosphatase (ALP) activity. […] A culture system was established that can be used as an in vitro model for studying the effects of anabolic and estrogen-like compounds on osteoblast differentiation and activity. In this culture system mouse KS483 cells first proliferate and then differentiate into osteoblasts capable of forming mineralized bone nodules in the presence of ascorbic acid and ß-glycerophosphate (Fagerlund et al. 2009). The test and reference compounds are added into the cell cultures concomitantly with the medium change, and their effects on the differentiation and activity of osteoblasts are determined. Cellular ALP, a marker of osteoblast differentiation, is determined from the cell lysates as described earlier (Lowry et al. 1954). Secreted PINP, a marker of organic bone matrix formation, is determined from the culture medium using a commercially available method (Rat/Mouse PINP EIA, IDS Ltd, Boldon, UK). Calcium deposition, an index of inorganic bone matrix formation, is measured using a commercially available calcium assay (Roche Diagnostics). Mouse KS483 cells were cultured in T-75 tissue culture flasks in aMEM supplemented with 10% charcoal-stripped fetal bovine serum until 80-90% confluence. The cells were incubated in a CO2 incubator in humidified atmosphere of 95% air and 5% carbon dioxide at 37° C. After reaching 80-90% confluence, subcultures were prepared. Cells were removed from the flasks with trypsin treatment and counted. For induction of the maturation of osteoblasts and bone formation, the immature osteoblastic cells were plated in type I collagen-coated 96-well plates. The cells were cultured for 8 days with a supplement of ascorbic acid ([…]), and half of the media was changed every 3-4 days. The test compound and control substance (E2) were added in the beginning of the culture period and when the medium was changed. The cultures were stopped at day 8 by removing the culture media from the wells, and cell lysates were prepared. Cellular ALP activity and total protein content (Protein Assay, Bio-Rad Laboratories Inc, CA, USA) were quantitated by using VICTOR2™ Multilabel Counter (PerkinElmer, Waltham, Mass., USA).

[2] = system: rat ovariectomy (OVX) model; experiment: Short-term effects on body weight, uterine weight and bone turnover markers in the rat ovariectomy (OVX) model; type: in vivo, rat (Sprague-Dawley); parameters: key to Body weight, change during the first week / Body weight, change during the in-life phase / Relative uterine weight at day 14 / Serum PINP levels, change during the in-life phase / Serum OC levels, change during the in-life phase / Serum CTX levels, change during the in-life phase / Serum TRACP 5b activity, change during the in-life phase: An upwards arrow (↑) indicates a statistically significant increase; a downwards arrow (↓) a statistically significant decrease; One asterisk (*) indicates a statistical significance with a p-value<0.05; two asterisks (**) with a p-value<0.01; three asterisks (***) with a p-value<0.001; NS=Non-significant
Source text: The objective of this study was to investigate short-term effects of Compound 1 on biochemical serum markers of bone metabolism in a prevention study in a rat ovariectomy (OVX) model for postmenopausal osteoporosis. 17β-estradiol (E2) was used as a reference compound. The following five experimental groups were included in the study:
Each group contained eight female rats (Sprague-Dawley) that were three months of age at the beginning of in-life phase of the study. Before the start of the in-life phase, animals were weighed, their blood samples were harvested, and animals were randomized to study groups by stratification according to body weight and serum levels of procollagen type I N-terminal propeptide (PINP). At the beginning of the in-life phase, animals were weighed and operated. Treatment was started one day after the operations and continued once a day for two weeks. Sterile water was used as vehicle in groups 1 and 2. Body weight was determined after one week of treatment and treatment doses were adjusted accordingly. After two weeks of treatment, animals were weighed, their blood samples were harvested, animals were terminated, and their relative uterine weight was determined. For analyzing short-term effects of treatments, levels of four bone metabolism biomarkers were determined in serum samples harvested before the start and at the end of the in-life phase. These biomarkers included PINP as a marker of bone formation, N-terminal mid-fragment of osteocalcin (OC) as a general marker of bone turnover, C terminal cross-linked telopeptides of type I collagen (CTX) as a marker of bone resorption, and tartrate-resistant acid phosphatase isoform 5b (TRACP 5b) as a marker of osteoclast number. Serum levels at day −7 were used as baseline levels and serum levels at day 14 as levels affected by operations and treatments.
Each group contained eight female rats (Sprague-Dawley) that were three months of age at the beginning of in-life phase of the study. Animals were randomized to study groups by stratification according to their body weight and serum levels of procollagen type I N-terminal propeptide (PINP) measured one week before the start of the in-life phase (at day −7). At the beginning of the in-life phase (at day 0), animals were weighed, animals in groups 2-5 were ovariectomized, and animals in group 1 SHAM-operated. Treatment was started one day after the operations and continued once a day for two weeks (up to day 13). Sterile water was used as vehicle in groups 1 and 2. Body weight was determined at the beginning of the in-life phase (at day 0), one week after the start of the inlife phase (at day 7), and at the end of the in-life phase (at day 14). Treatment doses were adjusted according to the latest body weight obtained. After two weeks of treatment (at day 14), animals were weighed, their blood samples were harvested, animals were terminated, and their relative uterine weight was determined. For analyzing short-term effects of treatments, levels of four bone metabolism biomarkers were measured in serum samples harvested before the start of the in-life phase (at day −7) and at the end of the in-life phase (at day 14). These biochemical serum markers included PINP, N-terminal mid-fragment of osteocalcin (OC), C-terminal cross-linked telopeptides of type I collagen (CTX), and tartrate-resistant acid phosphatase isoform 5b (TRACP 5b). Serum levels obtained at day −7 were used as baseline levels and serum levels obtained at day 14 as levels affected by surgical operations and treatments.
Biochemical markers of bone metabolism are useful tools for monitoring osteoporosis therapy and for prediction of fracture risk and long-term changes in bone mineral density (Cremers et al. 2008). […]

[3] = system: KS483 mouse osteoprogenitor cells; experiment: Osteoblast activity assay (PINP at day 11, calcium deposition at day 13); type: cell-based; settings: reference stimulator, 10 nM
Description: The effects on osteoblasts were studied using KS483 mouse osteoprogenitor cells that can be induced to differentiate into bone-forming osteoblasts. […] In the osteoblast differentiation assay, the cells were cultured for 8 days, after which the formed mature osteoblasts were quantitated by measuring the amount of intracellular alkaline phosphatase (ALP) activity. […] A culture system was established that can be used as an in vitro model for studying the effects of anabolic and estrogen-like compounds on osteoblast differentiation and activity. In this culture system mouse KS483 cells first proliferate and then differentiate into osteoblasts capable of forming mineralized bone nodules in the presence of ascorbic acid and ß-glycerophosphate (Fagerlund et al. 2009). The test and reference compounds are added into the cell cultures concomitantly with the medium change, and their effects on the differentiation and activity of osteoblasts are determined. Cellular ALP, a marker of osteoblast differentiation, is determined from the cell lysates as described earlier (Lowry et al. 1954). Secreted PINP, a marker of organic bone matrix formation, is determined from the culture medium using a commercially available method (Rat/Mouse PINP EIA, IDS Ltd, Boldon, UK). Calcium deposition, an index of inorganic bone matrix formation, is measured using a commercially available calcium assay (Roche Diagnostics). Mouse KS483 cells were cultured in T-75 tissue culture flasks in aMEM supplemented with 10% charcoal-stripped fetal bovine serum until 80-90% confluence. The cells were incubated in a CO2 incubator in humidified atmosphere of 95% air and 5% carbon dioxide at 37° C. After reaching 80-90% confluence, subcultures were prepared. Cells were removed from the flasks with trypsin treatment and counted. For induction of the maturation of osteoblasts and bone formation, the immature osteoblastic cells were plated in type I collagen-coated 96-well plates. The cells were cultured for 13 days with a supplement of ascorbic acid (50 μg/ml) and ß-glycerophosphate (5 mM), and half of the media was changed every 3-4 days. The test compound and control substance (E2) were added in the beginning of the culture period and when the medium was changed. Secreted PINP was measured from the culture medium at day 11 as a marker of organic bone matrix formation. The cultures were stopped at day 13 by removing the culture media from the wells and adding hydrochloric acid. Calcium deposited into the formed bone matrix was quantitated by using VICTOR2™ Multilabel Counter (PerkinElmer, Waltham, Mass., USA).

[4] = system: human bone marrow-derived CD34+ osteoclast precursor cells; experiment: Osteoclast differentiation assay (secreted TRACP 5b at day 7); type: cell-based; settings: reference inhibitor, 5 nM
Description: The study was performed in four parts. In the first part, human bone marrow-derived CD34+ osteoclast precursor cells were cultured on bovine bone slices for 7 days, after which the formed osteoclasts were quantitated by measuring tartrate-resistant acid phosphatase 5b activity (TRACP 5b) in the culture medium.
The objective of this study was to investigate the effects of Compound 1 selected by the Sponsor on differentiation and activity of human osteoclasts and mouse osteoblasts in vitro. The effects on osteoclasts were studied using a model where bone marrow-derived human osteoclast precursor cells are cultured on bovine bone slices for 7 days in conditions favouring osteoclast differentiation, and allowed to differentiate into bone-resorbing osteoclasts. After completion of osteoclast differentiation at day 7, the culture medium was removed and new culture medium favouring osteoclast activity was added into the wells. The mature osteoclasts were then cultured for an additional 3 days, allowing them to resorb bone. In the osteoclast differentiation assay, the test compounds and a reference inhibitor osteoprotegerin (OPG) were added into cultures at day 0. In the osteoclast activity assay, the test compounds and a reference inhibitor E64 were added into cultures at day 7. Seven concentrations in 8 replicates were tested in both assays. Tartrate-resistant acid phosphatase 5b activity (TRACP 5b) was measured from the culture medium collected at day 7 as an index of the number of osteoclasts formed in each well during the differentiation period. C-terminal cross-linked telopeptides of type I collagen (CTX) was measured from the culture medium collected at day 10 to quantitate bone resorption during days 7-10.
A human osteoclast culture system was developed for use in this study where CD34+ osteoclast precursor cells derived from human bone marrow (Poietics® Human Osteoclast Precursors, Lonza, Walkersville, USA) are cultured on bovine bone slices in the presence of appropriate growth factors, including M-CSF and RANK-ligand (Rissanen et al. 2009). The cells are first allowed to differentiate into mature bone-resorbing osteoclasts, and the formed osteoclasts are then allowed to resorb bone. The test and reference compounds are added into the cell cultures at the beginning of the differentiation and/or the resorption period, and their effects on the differentiation and/or resorbing activity of osteoclasts are determined.
Secreted TRACP 5b is determined from the culture medium after the differentiation period using a commercially available method (BoneTRAPÒ, IDS Ltd, Boldon, UK). Secreted TRACP 5b describes accurately the number of osteoclasts formed in each well during the differentiation period. CTX is determined from the culture medium after the resorption period using a commercially available method (CrossLapsÒ for cultures, IDS Ltd, Boldon, UK). CTX describes accurately the amount of bone collagen degradation products released into the culture medium in each well during the resorption period.
In this study, human bone marrow-derived CD34+ stem cells (10000 cells/well) were suspended in culture medium and allowed to attach to bovine bone slices in 96-well tissue culture plates. The culture medium (containing 10% FBS, OCP BulletKit® Lonza, Walkersville, USA) was supplemented with appropriate amounts of important growth factors favoring osteoclast differentiation and activity, including M-CSF (33 ng/ml, OCP BulletKit® Lonza, Walkersville, USA) and RANK-ligand (66 ng/ml, OCP BulletKit® Lonza, Walkersville, USA) in 200 μl of medium. The cells were incubated in a CO2 incubator in humidified atmosphere of 95% air and 5% carbon dioxide at 37° C. for 7 days. The test compounds and reference compound OPG were added at day 0. Supernatants collected at day 7 were stored at −70° C. until analysis of TRACP 5b. TRACP 5b was measured from the culture medium (20 μl/sample) using VICTOR2™ Multilabel Counter (PerkinElmer, Waltham, Mass., USA). […]

[5] = OVX rats vs OVX vehicle, E2 4 μg/kg/d s.c.
[6] = OVX rats, 17β-estradiol 4 μg/kg/d s.c., two weeks

`C[C@]12CC[C@@H]3c4ccc(O)cc4CC[C@H]3[C@@H]1CC[C@@H]2O` [Compound E2, 17β-estradiol, reference compound] was tested, and the “effect on osteoblast differentiation” value [1] was “stimulated significantly”, the “Body weight, change during the first week” value [2, 5] was “↓ **” and the “Body weight, change during the in-life phase” value [2, 5] was “↓ **”. The “Relative uterine weight at day 14” value [2, 5] was “↑ **”, the “Serum CTX levels, change during the in-life phase” value [2, 5] was “↓ ***” and the “Serum OC levels, change during the in-life phase” value [2, 5] was “↓ ***”. The “Serum PINP levels, change during the in-life phase” value [2, 5] was “↓ **”, the “Serum TRACP 5b activity, change during the in-life phase” value [2, 5] was “NS” and the “OVX-induced gain in body weight” value [2, 6] was “prevented”. For the same molecule, the “OVX-induced increase in serum CTX levels” value [2, 6] was “prevented”, the “OVX-induced increase in serum OC levels” value [2, 6] was “prevented” and the “OVX-induced increase in serum PINP levels” value [2, 6] was “prevented”. The “OVX-induced reduction in relative uterine weight” value [2, 6] was “prevented”, the “OVX-induced reduction in serum TRACP 5b activity” value [2, 6] was “did not affect” and the “effect on osteoblast activity” value [3] was “stimulated significantly”.

B1: OPG: Osteoprotegerin, reference inhibitor of osteoclast differentiation (protein, UniProt O00300 22-401, looked up)
Tumor necrosis factor …: ETFPPKYLHYDEETSHQLLCDKCPPGTYLKQHCTAKWKTVCAPCPDHYYTDSWHTSDECLYCSPVCKELQYVKQECNRTHNRVCECKEGRYLEIEFCLKHRSCPPGFGVVQAGTPERNTVCKRCPDGFFSNETSSKAPCRKHTNCSVFGLLLTQKGNATHDNICSGNSESTQKCGIDVTLCEEAFFRFAVPTKFTPNWLSVLVDNLPGTKVNAESVERIKRQHSSQEQTFQLLKLWKHQNKDQDIVKKIIQDIDLCENSVQRHIGHANLTFEQLRSLMESLPGKKVGAEDIEKTIKACKPSDQILKLLSLWRIKNGDQDTLKGLMHALKHSKTYHFPKTVTQSLKKTIRFLHSFTMYKLYQKLFLEMIGNQVQSVKISCL
In the case of B1, the “effect on osteoclast differentiation” value [4] is reported as “inhibited significantly”.
